In ChEMBL document CHEMBL4000185, “Pyrimidine-Based Inhibitors of Dynamin I GTPase Activity: Competitive Inhibition at the Pleckstrin Homology Domain” (J Med Chem, 2017):
Calls of active or inactive are those of the source. The calls are words filed in the database; no cut-off is given here.

Tested on: not listed separately
Experiment: Inhibition of phosphatidyl serine liposome-stimulated sheep brain dynamin 1 GTPase activity assessed as reduction orthophosphate release using GTP as substrate after 30 mins by malachite green reagent based colorimetric assay
Set-up: species or system Ovis aries
Conditions: not given
With `CCCCCCCCCCCCCCNc1nc(C)cc(NCCN(C)C)n1` the IC50 was “Not Active”.

Same assay, conditions: read-out: IC50
`CCCCCCCCCCCCCCCCCCNc1nc(C)cc(NCCN(C)C)n1` showed an IC50 of 4.4 µM. In the case of `CCCN(CC1CC1)c1nc(C)cc(NCCN(C)C)n1`, the IC50 is reported as 59.8 µM. In the case of `CCCCCCCCCCCCNc1cc(C)nc(NCCCN(C)C)n1`, the IC50 is reported as 49 µM. In the case of `CCCCCCCCCCCCNc1cc(C)nc(NCCN)n1`, the IC50 is reported as 5.3 µM. `CCCCCCCCCCNc1ccnc(NCCN(C)C)n1` showed an IC50 of 2.9 µM. `CCCCCCCCCCCCNc1ccnc(NCCN(C)C)n1` gave an IC50 of 1.8 µM. `CCCN(CC1CC1)c1cc(C)nc(NCCN(C)C)n1` showed an IC50 of 52 µM. In the case of `CCCCCCNc1nc(C)cc(NCCN(C)C)n1`, the IC50 is reported as 5.8 µM. `Cc1cc(NC2CCCCC2)nc(NCCN(C)C)n1` gave an IC50 of 20.6 µM. In the case of `CCCCCCCCCCNc1cc(NCCN(C)C)ncn1`, the IC50 is reported as 5.1 µM. `CCCCCCCCCCCCCCCCCCNc1cc(C)nc(NCCN(C)C)n1` showed an IC50 of 8.4 µM. `CCCCCCCCCCCCNc1nc(C)cc(NCCN)n1` showed an IC50 of 18.6 µM. In the case of `CCCCCCCCCCN(CCCCCCCCCC)c1cc(C)nc(NCCN(C)C)n1`, the IC50 is reported as 7.5 µM. In the case of `CCCCCCCCCCCCNc1cc(C)nc(NCCC)n1`, the IC50 is reported as 61.8 µM. With `CCCCCCCCCCNc1nccc(NCCN(C)C)n1` the IC50 was 44.9 µM. Work on `CCCCCCCCCCCCNc1nc(C)cc(NCCC)n1` yielded an IC50 of 4.7 µM. In the case of `CCCCCCCCCCCCNc1nccc(NCCN(C)C)n1`, the IC50 is reported as 2 µM. For `CCCCCCCCCCCCNc1nc(C)cc(N(C)C)n1`, the IC50 was 3.3 µM. `CCCCCCCCCCNc1cc(C)nc(NCCN(C)C)n1` showed an IC50 of 3.8 µM. Molecule `CCCCCCCCCCCCNc1nc(C)cc(NCCCN(C)C)n1` has an IC50 of 37.7 µM. In the case of `CCCCCCCCCCCCNc1cc(C)nc(N(C)C)n1`, the IC50 is reported as 14 µM. `CCCCCCCCCCCCNc1cc(C)nc(NCCO)n1` showed an IC50 of 4.6 µM. `CCCCCCCCCCNc1nc(C)cc(NCCN(C)C)n1` gave an IC50 of 9.3 µM. `CCCCCCCCCCCCNc1cc(NCCN(C)C)ncn1` showed an IC50 of 7.7 µM. With `CCCCCCCCCCCCNc1cc(C)nc(Cl)n1` the IC50 was 32.5 µM. With `CCCCCCNc1cc(C)nc(NCCN(C)C)n1` the IC50 was 10.6 µM. In the case of `CCCCCCCCCCCCCCNc1cc(C)nc(NCCN(C)C)n1`, the IC50 is reported as 3.2 µM. Work on `CCCCCCCCNc1nc(C)cc(NCCN(C)C)n1` yielded an IC50 of 2.5 µM. `Cc1cc(NCCN(C)C)nc(NC2CCCCC2)n1` showed an IC50 of 3.8 µM. `CCCCCCCCCCCCNc1cc(C)nc(NCCN(C)C)n1` showed an IC50 of 1.1 µM. Molecule `CCCCCCCCCCN(CCCCCCCCCC)c1nc(C)cc(CCN(C)C)n1` has an IC50 of 5.2 µM. Molecule `CCCCCCCCCCCCNc1nc(C)cc(NCCO)n1` has an IC50 of 5.5 µM. `CCCCCCCCNc1cc(C)nc(NCCN(C)C)n1` showed an IC50 of 1.6 µM.

Organism: Ovis aries
Experiment: Inhibition of phosphatidyl serine liposome-stimulated sheep brain dynamin 1 GTPase activity assessed as reduction orthophosphate release up to 300 uM using GTP as substrate after 30 mins by malachite green reagent based colorimetric assay relative to control
Conditions: not given
With `Cc1cc(Cl)nc(NCCNC(=O)OC(C)(C)C)n1` the inhibition was “inactive”. With `CCCCCCCCNc1nc(C)cc(Cl)n1` the inhibition was “inactive”. In the case of `COc1ccc(CNc2cc(C)nc(Cl)n2)cc1`, the inhibition is reported as “inactive”. In the case of `Cc1cc(Cl)nc(NCCCN(C)C)n1`, the inhibition is reported as “inactive”. With `CCCCNc1cc(C)nc(Cl)n1` the inhibition was “inactive”. In the case of `CCCCCCCCCCCCCCNc1nc(C)cc(Cl)n1`, the inhibition is reported as “inactive”. In the case of `COc1ccc(CNc2nc(C)cc(Cl)n2)cc1`, the inhibition is reported as “inactive”. In the case of `CCCCCCCCNc1cc(C)nc(Cl)n1`, the inhibition is reported as “inactive”. In the case of `Cc1cc(Cl)nc(NCCN)n1`, the inhibition is reported as “inactive”. For `CCCCCCCCCCNc1cc(C)nc(Cl)n1`, the inhibition was “inactive”. In the case of `CCCN(CC1CC1)c1nc(C)cc(Cl)n1`, the inhibition is reported as “inactive”. For `CCCCCCCCCCCCCCNc1cc(C)nc(Cl)n1`, the inhibition was “inactive”. For `CCCN(CC1CC1)c1cc(C)nc(Cl)n1`, the inhibition was “inactive”. In the case of `Cc1cc(NC2CCCCC2)nc(Cl)n1`, the inhibition is reported as “inactive”. With `CCNc1nc(C)cc(Cl)n1` the inhibition was “inactive”. For `CCCNc1nc(C)cc(Cl)n1`, the inhibition was “inactive”. For `CCC(C)Nc1cc(C)nc(Cl)n1` (configuration not stated), the inhibition was “inactive”. In the case of `Cc1cc(Cl)nc(NC2CCCCC2)n1`, the inhibition is reported as “inactive”. For `Cc1cc(N2CCN(C)CC2)nc(Cl)n1`, the inhibition was “inactive”. With `CCC(C)Nc1nc(C)cc(Cl)n1` (configuration not stated) the inhibition was “inactive”. With `CCNc1cc(C)nc(Cl)n1` the inhibition was “inactive”. With `CCCCCCNc1nc(C)cc(Cl)n1` the inhibition was “inactive”. With `Cc1cc(NCc2ccccc2)nc(Cl)n1` the inhibition was “inactive”.
